Measurements: ChEMBL document CHEMBL2434925, “Synthesis and antiviral activity of a novel class of (5-oxazolyl)phenyl amines” (Eur J Med Chem, 2013)

Columns and labels:
[1] = Selectivity index, ratio of CC50 for african green monkey Vero cells to IC50 for Coxsackie B3 virus Schmitt; assay type: functional
[2] = Cytotoxicity against african green monkey Vero cells after 96 hrs by MTT assay; assay type: cell-based; settings: chlorocebus sabaeus
[3] = Selectivity index, ratio of CC50 for african green monkey Vero cells to IC50 for Coxsackie B3 virus Nancy; assay type: functional
[4] = test system: Coxsackievirus B3; assay: Antiviral activity against Coxsackie B3 virus Nancy in african green monkey Vero cells assessed as inhibition virus-induced cytopathic effect after 48 hrs; assay type: functional, organism-based; settings: Enterovirus B
[5] = test system: Hepatitis C virus; assay: Antiviral activity against HCV expressing pFL-J6/JFH/JC1 infected in human Huh7.5 cells assessed as inhibition of viral RNA synthesis after 96 hrs by one-step RT-PCR analysis; assay type: functional, organism-based, Hepacivirus hominis; settings: Huh-7, 96 h
[6] = Selectivity index, ratio of CC50 for human Huh7.5 cells to IC50 for HCV expressing pFL-J6/JFH/JC1; assay type: functional, Huh-7
[7] = test system: Coxsackievirus B6; assay: Antiviral activity against Coxsackie B6 virus Schmitt in african green monkey Vero cells assessed as inhibition virus-induced cytopathic effect after 48 hrs; assay type: functional, organism-based; settings: Enterovirus B
[8] = Cytotoxicity against human Huh7.5 cells after 96 hrs by MTT assay; assay type: cell-based, Huh-7

Row | SMILES | Ratio CC50/IC50 [1] | CC50 at 96 h [2] [µM] | Ratio CC50/IC50 [3] | IC50 [4] [µM] | IC50 [5] [µM] | Ratio CC50/IC50 [6] | IC50 [7] [µM] | CC50 at 96 h [8] [µM]
1 | COc1cc(NCc2ccc(Cl)s2)ccc1-c1cnco1 | 64 | 53.8 | 39.3 | 1.37 | 0.33 | 130.8 | 0.84 | 43.2
2 | COc1cc(/N=C/c2ccc(F)cc2)ccc1-c1cnco1 | 5.6 | 324 | 7.5 | 43.3 | 1.18 | >84.8 | 58.2 | > 100
3 | COc1cc(NCc2ccncc2)ccc1-c1cnco1 | 22.5 | 342 | 13 | 26.3 | 5.71 | 12.7 | 15.2 | 72.2
4 | COc1cc(NCc2ccc(Br)s2)ccc1-c1cnco1 | 39.4 | 47.3 | 9.2 | 5.14 | > 3.75 | <10.5 | 1.2 | 39.4
5 | COc1cc(NCc2cccs2)ccc1-c1cnco1 | 11.7 | 17.9 | 19.1 | 0.94 | 0.28 | 183.3 | 1.54 | 51.3
6 | COc1cc(NCc2cc(OC)c(OC)c(OC)c2)ccc1-c1cnco1 | 3.6 | 41.6 | 3.6 | 11.6 | > 3.71 | <9.9 | 11.6 | 36.6
7 | COc1cc(NCc2ccc(-c3ccccc3)s2)ccc1-c1cnco1 | 9.1 | 6.82 | 3 | 2.26 | 0.92 | 28.3 | 0.75 | 26
8 | COc1cc(NCc2cncs2)ccc1-c1cnco1 | 20.5 | 232 | 11.8 | 19.6 | 0.73 | 94.4 | 11.3 | 68.9
9 | COc1ccc(-c2cnco2)cc1NCc1ccc(C)s1 | 3.4 | 42.7 | 5.2 | 8.22 | 2.42 | 21.9 | 12.8 | 52.9
10 | COc1ccc2[nH]cc(CNc3ccc(-c4cnco4)c(OC)c3)c2c1 | – | 36.7 | – | > 7.07 | 0.82 | >122 | > 7.07 | > 100
11 | COc1ccc(CNc2ccc(-c3cnco3)c(OC)c2)cc1 | 7 | 23.9 | 27.5 | 0.87 | 1.4 | 29.5 | 3.42 | 41.3
12 | COc1cc(NC/C=C/c2ccccc2)ccc1-c1cnco1 | 15.5 | 72.5 | 20.6 | 3.52 | 2.38 | >42 | 4.67 | > 100
13 | CCc1ccc(CNc2ccc(-c3cnco3)c(OC)c2)s1 | 3 | 13.6 | 6.8 | 2 | 1.98 | 19.8 | 4.55 | 39.1
14 | COc1cc(/N=C/c2ccc([N+](=O)[O-])o2)ccc1-c1cnco1 | 2.8 | 13.7 | – | > 7.88 | 1.24 | 16.5 | 4.88 | 20.5
15 | COc1ccc(O)c(CNc2ccc(-c3cnco3)c(OC)c2)c1 | 4.3 | 98.2 | 9.9 | 9.96 | 9.95 | >10.1 | 22.7 | > 100
16 | COc1cc(NCc2cccc(C)n2)ccc1-c1cnco1 | 11.8 | 75.2 | 5.2 | 14.5 | 2.4 | 26.1 | 6.36 | 62.7
17 | COc1cc(NCc2cc3ccccc3s2)ccc1-c1cnco1 | 6.9 | 7.36 | 5.3 | 1.39 | 0.5 | 57.9 | 1.07 | 29
18 | COc1cc(NCc2ccc(OC)c(OC)c2OC)ccc1-c1cnco1 | 17 | 28.8 | 39.5 | 0.73 | 0.66 | 48.4 | 1.7 | 32

Row | SMILES | Ratio CC50/IC50 [1] | CC50 at 96 h [2] [µM] | Ratio CC50/IC50 [3] | IC50 [4] [µM] | IC50 [5] [µM] | Ratio CC50/IC50 [6] | IC50 [7] [µM] | CC50 at 96 h [8] [µM]
19 | COc1cc(NCc2ccc(C(=O)O)s2)ccc1-c1cnco1 | 6.2 | 350 | 5.2 | 67.3 | 22.4 | >4.5 | 56 | > 100
20 | COc1cc(NCc2ccc(C)s2)ccc1-c1cnco1 | 11.8 | 24.7 | 7 | 3.52 | 2.05 | 16.8 | 2.1 | 34.4
21 | COc1cc(NCc2ccc(C)o2)ccc1-c1cnco1 | 6.7 | 45.1 | 9 | 5.01 | 1.01 | 62.8 | 6.78 | 63.4
22 | COc1ccc(-c2cnco2)cc1NCc1cccs1 | 4.8 | 53.8 | 2.1 | 25.9 | 3.08 | >32.5 | 11.3 | > 100
23 | COc1ccccc1/C=C/CNc1ccc(-c2cnco2)c(OC)c1 | 1.7 | 12.7 | 4 | 3.15 | 2.3 | 12.7 | 7.34 | 29.2
24 | COc1cc(NCc2cccnc2Cl)ccc1-c1cnco1 | 12.2 | 40.6 | 9.7 | 4.21 | 1.8 | 22.5 | 3.33 | 40.5
25 | COc1ccc(CNc2ccc(-c3cnco3)c(OC)c2)cn1 | 36.7 | 371 | 61.5 | 6.03 | 3.25 | 17.5 | 10.1 | 56.8
26 | COc1cc(/N=C/c2ccncc2)ccc1-c1cnco1 | 15.6 | 239 | 6.8 | 34.9 | 1.61 | >62.1 | 15.3 | > 100
27 | COc1cc(NCc2ccco2)ccc1-c1cnco1 | 8.2 | 57 | 7.5 | 7.6 | 1.06 | 75.4 | 6.96 | 80
28 | COc1cc(NCc2scnc2C)ccc1-c1cnco1 | 7 | 73.7 | 13 | 5.67 | 6.88 | 8.5 | 10.6 | 58.5
29 | COc1c(C)c2c(c(O)c1C/C=C(\C)CCC(=O)O)C(=O)OC2 [MYCOPHENOLIC ACID] | 9 | 624 | 61.5 | 10.2 | 4.16 | >24 | 69.4 | > 100
30 | COc1cc(NCc2csc3ccccc23)ccc1-c1cnco1 | 5.2 | 12.7 | 6.8 | 1.87 | > 1.24 | <19.1 | 2.43 | 23.6
31 | COc1cc(NCc2c[nH]c3ccccc23)ccc1-c1cnco1 | 2.1 | 48.3 | 4.9 | 9.95 | 1.62 | 34.6 | 23.2 | 56.1
32 | COc1cc(/N=C/C=C/c2ccccc2)ccc1-c1cnco1 | 5.6 | 105 | 7 | 15.1 | 6.99 | >14.3 | 18.9 | > 100
33 | COc1cc(NCc2ccsc2)ccc1-c1cnco1 | 38.9 | 181 | 49.4 | 3.66 | 1.25 | 50.5 | 4.65 | 63.1
34 | COc1cc(/N=C/c2cccs2)ccc1-c1cnco1 | 9 | 406 | 4 | 101 | 5.72 | >17.5 | 45.1 | > 100
35 | NC(=O)c1ncn([C@@H]2O[C@H](CO)[C@@H](O)[C@H]2O)n1 [RIBAVIRIN] | – | 8190 | 5.2 | 1580 | – | – | 910 | –
